Measured values from PubChem BioAssay (NCI).
Values joined by “and” are separate entries in the source; they are usually repeats but may differ in a detail not shown here. Equal entries are not always repeated.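 Step 1: Grow cells in 96-well plates. Step 2: Expose to compound for 48 hours at 5 concentrations. Step 3: Interpolate endpoints linearly; if unreached, use highest concentration. GI50 marks 50% less growth. The concentration for full growth arrest is given as TGI.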

Columns and labels:
Assay in all cases: inhibition of tumour cell growth, NCI panel, 48 h
NCI-H522 lung = test system: NCI-H522 lung
NCI-H23 lung = test system: NCI-H23 lung
UACC-62 melanoma = test system: UACC-62 melanoma
M14 melanoma = test system: M14 melanoma
TK-10 renal = test system: TK-10 renal
NCI-H460 lung = test system: NCI-H460 lung
OVCAR-4 ovarian = test system: OVCAR-4 ovarian
HCC-2998 colon = test system: HCC-2998 colon
MOLT-4 leukemia = test system: MOLT-4 leukemia
M19-MEL melanoma = test system: M19-MEL melanoma

| SMILES | GI50 (NCI-H522 lung) | TGI (NCI-H522 lung) | GI50 (NCI-H23 lung) | TGI (NCI-H23 lung) | GI50 (UACC-62 melanoma) | TGI (UACC-62 melanoma) | GI50 (M14 melanoma) | TGI (M14 melanoma) | GI50 (TK-10 renal) | TGI (TK-10 renal) | GI50 (NCI-H460 lung) | TGI (NCI-H460 lung) | GI50 (OVCAR-4 ovarian) | TGI (OVCAR-4 ovarian) | GI50 (HCC-2998 colon) | TGI (HCC-2998 colon) | GI50 (MOLT-4 leukemia) | TGI (MOLT-4 leukemia) | TGI (M19-MEL melanoma) |
| --- | --- | --- | --- | --- | --- | --- | --- | --- | --- | --- | --- | --- | --- | --- | --- | --- | --- | --- | --- |
| O=C1OCC2=C1C(c1ccccc1)c1cc3c(cc1N2CCO)OCO3 (stereo not given) | 1.09 µM | > 50 µM | 7.88 µM | > 50 µM | 2.53 µM | > 50 µM | 1.92 µM | 23.3 µM | 32.7 µM | > 50 µM | 2.07 µM | > 50 µM | 4.38 µM | > 50 µM | 9.91 µM | > 50 µM | > 50 µM | > 50 µM |  |
| CCOC(=O)NC(=O)c1cn(CCN2CCN(C(=O)CCCCCCCCCCC(=O)N3CCN(CCn4cc(C(=O)NC(=O)OCC)c(=O)[nH]c4=O)CC3)CC2)c(=O)[nH]c1=O |  | > 100 µM |  | > 100 µM |  |  |  | > 100 µM |  | > 100 µM |  |  |  | > 100 µM |  | > 100 µM |  | > 100 µM | > 100 µM |
| CC(C)(C)c1cc(C=C(C#N)C#N)cc(C(C)(C)C)c1O | 0.219 µM | 2.86 µM and 1.61 µM | 0.194 µM |  |  | 8.29 µM and 19.3 µM | 0.533 µM | 12.1 µM and 10.7 µM | 0.336 µM |  | 0.305 µM | 21.9 µM | 0.523 µM | > 354 µM |  | 18.4 µM |  | 10.6 µM |  |
| CCOC(=O)C(NC(=O)c1nc[nH]c1[N+](=O)[O-])C(C)C (stereo not given) |  | > 100 µM |  | > 100 µM |  | > 100 µM |  | > 100 µM |  |  |  | > 100 µM |  | > 100 µM |  | > 100 µM |  | > 100 µM | > 100 µM |
| CC(=O)N1CCC2(c3ccccc3N(C(C)=O)C2c2ccc(O)cc2)C1C(=O)O (stereo not given) |  | > 100 µM |  | > 100 µM |  | > 100 µM |  | > 100 µM |  | > 100 µM |  |  |  |  |  | > 100 µM |  | > 100 µM | > 100 µM |
| COC(=O)C1(C(=O)OC)CC(=O)c2cc3c(cc2-c2c(cc(OC)c(OC)c2OC)C1)OCO3 |  | > 211 µM |  | > 211 µM |  | > 211 µM |  |  |  | > 211 µM |  | > 211 µM |  |  |  | > 211 µM |  | > 211 µM | > 211 µM |
| CC(=O)/C(=C/c1ccccc1F)C(=O)c1ccccc1 |  | > 100 µM |  | > 100 µM |  | > 100 µM |  | > 100 µM |  | 80.9 µM |  | 97.8 µM |  | > 100 µM |  | 45.1 µM |  | 7.14 µM |  |
| CSC1=Nc2ccccc2N=C(c2ccc(Cl)cc2)C1 |  | > 100 µM |  | > 100 µM |  | > 100 µM |  | > 100 µM |  |  |  | > 100 µM |  | > 100 µM |  |  |  | 67.4 µM | > 100 µM |
| C=C1C(=O)O[C@H]2[C@H]1CC/C(C=Nc1c(N)cc(C(F)(F)F)cc1Br)=C\CC[C@@]1(C)O[C@@H]21 | 1.37 µM | 2.96 µM | 1.84 µM | 4.41 µM | 1.41 µM | 2.96 µM | 1.71 µM | 3.55 µM | 1.98 µM | 3.49 µM | 1.78 µM | 3.81 µM | 1.57 µM | 3.45 µM | 1.83 µM | 3.52 µM | 0.624 µM | > 100 µM |  |
| N/N=C1\C(=O)N(CCc2ccccc2)C(=O)C1C(=O)NCCc1ccccc1 (stereo not given) |  | > 100 µM |  | > 100 µM |  | > 100 µM |  | > 100 µM |  | > 100 µM |  |  |  |  |  |  |  | > 100 µM | > 100 µM |
| CNC(=O)c1nn(C)c2c1C(C)(C)Cc1cnc(Nc3ccc(N4CCN(C)CC4)cc3)nc1-2 | 0.327 µM | > 5.54 µM | 0.966 µM | > 7.26 µM | 0.486 µM | > 10 µM | 0.248 µM | > 8.53 µM | 0.116 µM | > 10 µM | 0.408 µM | > 10 µM | 0.683 µM | > 8.34 µM | 2.47 µM | > 10 µM | 0.546 µM | > 5.29 µM |  |
| CC(=O)O[C@H]1CCc2c(cc(N)c3c2C(=O)C[C@]2(C)C([C@H](C)CCCC(C)C)CCC32C)C1(C)C (stereo not given in full) |  | > 100 µM |  | > 100 µM |  | > 100 µM |  | > 100 µM |  | > 100 µM |  | > 100 µM |  | > 100 µM |  | > 100 µM |  | > 100 µM |  |
| N#Cc1ccc(NC(=O)C(CC(=O)OCc2ccccc2)NC(=O)OCc2ccccc2)cc1 (stereo not given) | > 100 µM | > 100 µM | > 100 µM | > 100 µM | > 100 µM | > 100 µM | > 100 µM | > 100 µM | > 100 µM | > 100 µM | > 100 µM | > 100 µM | > 100 µM | > 100 µM |  | > 100 µM | > 100 µM | > 100 µM |  |
| CCOC(=O)c1cc2c3c(c(O)c(OC)c2s1)N(C(=O)c1cc2c4c(c(O)c(OC)c2s1)N(C(C)=O)CC4)CC3 |  | > 100 µM |  | > 100 µM |  | > 100 µM |  | > 100 µM |  | > 100 µM |  | > 100 µM |  | > 100 µM |  | > 100 µM |  |  | > 100 µM |
| CCNC(=O)COc1ccc(Cl)cc1Cl |  | > 100 µM |  | > 100 µM |  |  |  | > 100 µM |  |  |  | > 100 µM |  |  |  |  |  | > 100 µM | > 100 µM |
| Cc1c(C(=O)O)oc2ccc([N+](=O)[O-])cc12 |  | > 100 µM |  | > 100 µM |  | > 100 µM |  | > 100 µM |  | > 100 µM |  | > 100 µM |  | > 100 µM |  | > 100 µM |  |  | > 100 µM |
| CN(C)CCNC(=O)Cn1ccc(=O)c2c([N+](=O)[O-])cccc21 |  | > 100 µM |  | > 100 µM |  | > 100 µM |  | > 100 µM |  | > 100 µM |  | > 100 µM |  | > 100 µM |  | > 100 µM |  | > 100 µM |  |
| CN(C)C(=O)O[C@H]1CN[C@H](C#Cc2cc3ncnc(Nc4ccc(OCc5cccc(F)c5)c(Cl)c4)c3s2)C1 | 0.977 µM | > 12.7 µM | > 25 µM | > 25 µM | > 25 µM | > 25 µM | > 25 µM | > 25 µM | 0.765 µM | > 17.4 µM | 7.25 µM | > 25 µM | 20.4 µM | > 25 µM | 11.3 µM | > 25 µM | 4.53 µM | > 25 µM |  |
| COCCOCCOC1=CC(=O)c2c(O)ccc(O)c2C1=O |  | 2.93 µM |  | 3.23 µM |  | 3.34 µM |  | 2.14 µM |  | 4.51 µM |  | 3.47 µM |  | 3.13 µM |  | 3.51 µM |  | 5.56 µM |  |
